Laboratory results reported in the NIST ThermoML archive (doi:10.1021/je400839x).
Numbers after ± are expanded uncertainties.

Assays:
[1] = for viscosity / speed of sound / mass density: 101 kPa, Liquid; for viscosity: Concentric cylinders viscometry; for speed of sound: Pulse-echo method; for mass density: Vibrating tube method
[2] = xn = mol fraction of the nth substance listed; conditions: 101 kPa, Liquid, x2 = 0; for viscosity: Concentric cylinders viscometry; for mass density: Vibrating tube method

Structure (SMILES)	viscosity ([1]; 293.15 K) [mPa·s]	mass density ([1]; 293.15 K) [kg/m3]	viscosity ([1]; 303.15 K) [mPa·s]	mass density ([1]; 303.15 K) [kg/m3]	viscosity ([1]; 313.15 K) [mPa·s]	mass density ([1]; 313.15 K) [kg/m3]	viscosity ([1]; 323.15 K) [mPa·s]	mass density ([1]; 323.15 K) [kg/m3]	viscosity ([1]; 333.15 K) [mPa·s]	mass density ([1]; 333.15 K) [kg/m3]	viscosity ([1]; 343.15 K) [mPa·s]	mass density ([1]; 343.15 K) [kg/m3]	viscosity ([1]; 353.15 K) [mPa·s]	mass density ([1]; 353.15 K) [kg/m3]	viscosity ([1]; 363.15 K) [mPa·s]	mass density ([1]; 363.15 K) [kg/m3]	viscosity ([1]; 373.15 K) [mPa·s]	mass density ([1]; 373.15 K) [kg/m3]	other results
CC(CC(C)(C)C)CC(C)(C)C [2,2,4,6,6-pentamethylheptane]	1.29 ± 0.02	745.5 ± 0.6	1.1 ± 0.01	738.2 ± 0.6	0.941 ± 0.012	730.9 ± 0.6	0.827 ± 0.011	723.5 ± 0.6	0.726 ± 0.01	716.1 ± 0.6	0.643 ± 0.01	708.6 ± 0.6	0.573 ± 0.009	700.9 ± 0.5	0.515 ± 0.009	693.2 ± 0.5	0.467 ± 0.008	685.5 ± 0.5	speed of sound ([1]; 293.15 K): 1204 ± 2.2 m/s; surface tension liquid-gas ([1]; 294 K, Pendant drop shape): 21.8 ± 0.4 mN/m; speed of sound ([1]; 303.15 K): 1164.9 ± 2.2 m/s; speed of sound ([1]; 313.15 K): 1126.7 ± 2.2 m/s; speed of sound ([1]; 323.15 K): 1089.3 ± 2.2 m/s
CCCCCCCCCCCCCCCC [hexadecane]	3.44 ± 0.02	773.7 ± 0.3	2.72 ± 0.02	766.8 ± 0.3	2.21 ± 0.02	759.9 ± 0.3	1.82 ± 0.01	752.9 ± 0.3	1.53 ± 0.01	746 ± 0.3	1.31 ± 0.01	739 ± 0.3	1.13 ± 0.01	731.9 ± 0.3	0.99 ± 0.009	724.8 ± 0.3	0.876 ± 0.009	717.7 ± 0.3	–
CCCCCCCCCCCCCCCC [hexadecane] + CC(CC(C)(C)C)CC(C)(C)C	–	–	–	–	–	–	–	–	–	–	–	–	–	–	–	–	–	–	viscosity ([2]; 293.15 K): 3.44 ± 0.02 mPa·s; mass density ([2]; 293.15 K): 773.7 ± 0.3 kg/m3; viscosity ([2]; 303.15 K): 2.72 ± 0.02 mPa·s; mass density ([2]; 303.15 K): 766.8 ± 0.3 kg/m3; viscosity ([2]; 313.15 K): 2.21 ± 0.02 mPa·s; mass density ([2]; 313.15 K): 759.9 ± 0.3 kg/m3; viscosity ([2]; 323.15 K): 1.82 ± 0.01 mPa·s; mass density ([2]; 323.15 K): 752.9 ± 0.3 kg/m3; viscosity ([2]; 333.15 K): 1.53 ± 0.01 mPa·s; mass density ([2]; 333.15 K): 746 ± 0.3 kg/m3; viscosity ([2]; 343.15 K): 1.31 ± 0.01 mPa·s; mass density ([2]; 343.15 K): 739 ± 0.3 kg/m3; viscosity ([2]; 353.15 K): 1.13 ± 0.01 mPa·s; mass density ([2]; 353.15 K): 731.9 ± 0.3 kg/m3; viscosity ([2]; 363.15 K): 0.99 ± 0.009 mPa·s; mass density ([2]; 363.15 K): 724.8 ± 0.3 kg/m3; viscosity ([2]; 373.15 K): 0.876 ± 0.009 mPa·s; mass density ([2]; 373.15 K): 717.7 ± 0.3 kg/m3
